Measurements published in US12508275B2, “Neomycin based compounds, and pharmaceutical use thereof” (UNIVERSITÉ COTE D'AZUR, priority 2019, dated 2025).

Tests used:
human kidney (NHEK) = experiment: XTT toxicity assay on human kidney cells; format: cell-based
Method: (§1) FIG. 4: Determination of compound toxicity on GSC and normal human cells. (A) GB5 were incubated with growing concentration of Compounds 9a-b and 18a. (B) human normal neural stem cell (NNSC), human normal kidney cells (NHEK), human normal hepatocytes (HEPRG) and (C) human endothelial cells (HUVEC) were treated with growing concentration of Compound 9a. 7 days later, the cells were subjected to an XTT assays as described in the method section. The results are the meaning of at least two separate experiments. Cell death was confirmed by trypan blue staining (not shown).
HEK293 (human embryonic kidney cell) were grown in DMEM supplemented with glutamax and 10% foetal calf serum.
(§2) V—Toxicity tests: NNSC, GB5, TG6, HEK293, and HepaRG, HUVEC were seeded at 2000 cells/well in 96 wells plate in their respective culture mediums alone or containing growing concentration from 10 to 500 uM of Compounds 9a-b. Cultures were incubated 4 days and the cellular toxicity has been evaluated by XTT assays. Cell viability has been also assessed by counting living and dead cells with trypan blue staining.
XTT assays allows, through cell metabolism measurement, to determine a cytotoxic/cytostatic effects. Compounds 9a-b and 18a were tested for their eventual toxicity by XTT assays as described in the material and method section. […]

[1] = tested on: luminescent patient derived GSC orthotopic xenograft; experiment: Orthotopic xenograft of luminescent patient derived GSC, treatment from two weeks after injection; format: in vivo, nude mice
Method: FIG. 3: Nude mice were orthotopically xenografted by luminescent patient derived GSC. (A-B) Two weeks following injections, mice were intraperitoneally injected with 10 mg/kg (n=4), 7.5 mg/kg (n=4) or 5 mg/kg (n=4) of Compound 9a or vehicle alone as control (ctl n=10). A) graphical representation of the average of tumor growth in the control group (n=10) and in each Compound 9a treated groups. B) Survival of the whole population of mice of the untreated and treated groups were compared using a log rank test according to Kaplan Meier method. (R command, see World Wide Web: biostatgv.sentiweb.fr/?module=tests/surv). The solid line represents the survival rate of control untreated mice. The dotted line represents the survival rate of mice treated by compound 9a. C) Mice treatment with compound 9a when the tumors were already formed. Tumor growth representation in mice, treated either with DMSO (control: -♦-) or Compound 9a (-▪-). Tumor growth was controlled every week by live imaging. The solid line represents the tumor growth in control untreated mice. The dotted line represents the tumor growth in mice treated by compound 9a.
Nude mice were orthotopically xenografted by luminescent patient derived GSC. […]

[2] = tested on: OCT4, NANOG, SOX2 expression in GB5; experiment: OCT4, NANOG, SOX2 pluripotency marker immunofluorescence in GB5; format: cell-based, human; details: GB5, 20 uM
[3] = tested on: Patient derived GSC (GB5); experiment: Effect of compound treatment on GSC phenotype (adhesion, morphology), GB5; format: cell-based, human; details: GB5, 10 uM, three days
Text: FIG. 1: phase contrast images of GB5 morphology untreated (CTL DMSO) or treated with the indicated compound (“Cpd” denotes compound) at the indicated concentration. Control cells grow as non-adherent spheroids composed of numerous GSC. When differentiated the cells become adherent and spread on the culture dish.
B—Cell culture: Patient-derived cells GB5 were isolated from surgical resection of human primary GBM provided by the department of neurosurgery of the University Hospital of Nice. TG6 (patient-derived cell from primary GBM) and HNNSC25 (Human Normal Neural Stem Cells) have been provided by Dr Hervé Chneiweiss, University of Pierre and Marie Curie, Paris. The resulting primary cultures (GB5, TG6, HNNSC25) were grown in NS34+ medium containing EGF and bFGF (DMEM-F12 1/1 ratio, 10 mM glutamine, 10 mM Hepes, 0.025% Sodium bicarbonate, N2, G5, and B27).
Patient derived GSC (GB5) were treated with growing concentration of Compounds 9a-b and 18a-b (10 to 100 uM) during three days). […] Similar results have been obtained with TG6.

[4] = tested on: normal neural stem cells (NNSC); experiment: XTT toxicity assay on normal neural stem cells; format: cell-based
Method: as §1, §2
XTT assays allows, through cell metabolism measurement, to determine a cytotoxic/cytostatic effects. Compounds 9a-b and 18a were tested for their eventual toxicity by XTT assays as described in the material and method section. At the working concentrations 10 to 25 uM, the compounds are not toxic for GSC (FIG. 4A). […]

SMILES: NCCCCNCCCNC(=O)c1csc(-c2csc(CCNC(=O)CCc3cn(CC4OC(OC5C(O)C(N)CC(N)C5OC5OC(CN)C(O)C(O)C5N)C(O)C4OC4OC(CN)C(O)C(O)C4N)nn3)n2)n1 (centres unmarked) [Compound 9a, N-(3-((4-Aminobutyl)amino)propyl)-2′-(2-(3-(1-methyl-1H-1,2,3-triazol-4-yl)propanamido)ethyl)-[2,4′-bithiazole]-4-carboxamide-neomycin]
- toxicity (XTT) (human kidney (NHEK); 100 uM and above): toxic
- toxicity (XTT) (human kidney (NHEK); between 10 to 50 uM): not toxic
- treated mice that developed a tumor ([1]; intraperitoneal 10, 7.5 or 5 mg/kg, three days a week, all control mice developed a tumor): two mice above twelve
- tumor initiation and development ([1]; intraperitoneal at 10 mg/kg, 7.5 mg/kg and 5 mg/kg): prevented tumor initiation and development
- OCT4, NANOG and SOX2 expression [2]: down regulation
- adhesion and changes in GSC morphology [3]: induced adhesion and changes in GSC morphology
- toxicity (XTT) ([4]; 100 uM and above): toxic
- toxicity (XTT) ([4]; between 10 to 50 uM): not toxic
